IC50 and viability, T/C data for 6 compounds are collected here from PubChem BioAssay AID1918938 (Molecular Pharmacology Branch, DTP, NCI, 2023).

Several values for one entry are separate records, joined by “and”; a condition that tells them apart may be missing. Equal entries are not always repeated. A value given as a limit tells only on which side of the number the result lay.

For the experiment, the system named is 556581-035-R-J1-PDC complex spheroid viability. Description: Anticancer human tumor 556581-035-R-J1-PDC patient-derived ovarian carcinoma cell line growth inhibition. Particulars: for viability, T/C: stronger effect = lower value. Put shortly: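 Complex spheroids of tumor cells with HUVEC and human MSCs, exposed to iadademstat combined with other agents. Each agent tested in half-log steps from near clinical Cmax (else 10 microM top), DMSO ≤0.25%.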

[1] abbreviates: curve of first compound, second compound 0.1 µM.
Where [2] appears, read: curve of first compound, second compound 0.316 µM.
The mark [3] stands for this setting: curve of first compound, second compound 1 µM.
The mark [4] stands for this setting: curve of first compound, second compound 3.16 µM.
The mark [5] stands for this setting: curve of first compound, second compound 10 µM.
The mark [6] stands for this setting: second compound 0.1 µM, first compound 0.0316 µM.
[7] abbreviates: second compound 0.1 µM, first compound 0.1 µM.
Setting [8] is: second compound 0.1 µM, first compound 0.316 µM.
Where [9] appears, read: second compound 0.1 µM, first compound 1 µM.
Setting [10] is: second compound 0.316 µM, first compound 0.0316 µM.
[11] abbreviates: second compound 0.316 µM, first compound 0.1 µM.
The mark [12] stands for this setting: second compound 0.316 µM, first compound 0.316 µM.
The mark [13] stands for this setting: second compound 0.316 µM, first compound 1 µM.
Setting [14] is: second compound 1 µM, first compound 0.0316 µM.
Where [15] appears, read: second compound 1 µM, first compound 0.1 µM.
The mark [16] stands for this setting: second compound 1 µM, first compound 0.316 µM.
Setting [17] is: second compound 1 µM, first compound 1 µM.
Where [18] appears, read: second compound 3.16 µM, first compound 0.0316 µM.
Setting [19] is: second compound 3.16 µM, first compound 0.1 µM.
[20] abbreviates: second compound 3.16 µM, first compound 0.316 µM.
[21] abbreviates: second compound 3.16 µM, first compound 1 µM.
Where [22] appears, read: second compound 10 µM, first compound 0.0316 µM.
[23] abbreviates: second compound 10 µM, first compound 0.1 µM.
[24] abbreviates: second compound 10 µM, first compound 0.316 µM.
The mark [25] stands for this setting: second compound 10 µM, first compound 1 µM.
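Also: spheroids exposed to agents for seven days.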
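For viability, T/C in this document: 100% = DMSO vehicle control wells.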

`O=C(C=Cn1cnc(-c2cc(C(F)(F)F)cc(C(F)(F)F)c2)n1)NNc1cnccn1` + NC1CCC(NC2CC2c2ccccc2)CC1: the IC50 by setting is: under setting [1], 0.214 µM; under setting [2], 0.138 µM; under setting [3], 0.289 µM; under setting [4], 0.254 µM; under setting [5], 0.34 µM. Besides, the viability, T/C by setting is: (second compound 0.1 µM, first compound 0.00316 µM) 75.4%; (second compound 0.1 µM, first compound 0.01 µM) 78.2%; under setting [6], 78.6%; under setting [7], 59.9%; under setting [8], 44.8%; under setting [9], 24.6%. Besides, the viability, T/C by setting is: (second compound 0.316 µM, first compound 0.00316 µM) 81.8%; (second compound 0.316 µM, first compound 0.01 µM) 86.2%; under setting [10], 78.8%; under setting [11], 49%; under setting [12], 44.1%; under setting [13], 25.2%. The viability, T/C was 76% (second compound 1 µM, first compound 0.00316 µM); 74.7% (second compound 1 µM, first compound 0.01 µM); 77% under setting [14]; 68.2% under setting [15]; 48.6% under setting [16]; 20.1% under setting [17]. In addition, the viability, T/C (second compound 3.16 µM, first compound 0.00316 µM) is 75.8%; the viability, T/C (second compound 3.16 µM, first compound 0.01 µM) was 86.9%; the viability, T/C under setting [18] was 75.5%; the viability, T/C under setting [19] is 67.2%; the viability, T/C under setting [20] was 46.2%; the viability, T/C under setting [21] was 25.3%. For the same compound, the viability, T/C was 67.2% (second compound 10 µM, first compound 0.00316 µM); 71.7% (second compound 10 µM, first compound 0.01 µM); 66.6% under setting [22]; 61.8% under setting [23]; 53.5% under setting [24]; 17.3% under setting [25].
Regarding `CC1COCCN1c1cc(C2(S(C)(=N)=O)CC2)nc(-c2ccnc3[nH]ccc23)n1` (stereo unspecified) + NC1CC1c1ccc(-c2cccc(O)c2)cc1, the IC50 was 5.95 µM under setting [1]; 5.94 µM under setting [2]; 5.37 µM under setting [3]; more than 10 µM under setting [4]; more than 10 µM under setting [5]. The viability, T/C runs as follows: under setting [6], 101%; under setting [7], 98.6%; under setting [8], 78.9%; under setting [9], 72.3%; (second compound 0.1 µM, first compound 3.16 µM) 52.5%; (second compound 0.1 µM, first compound 10 µM) 46.7%. The viability, T/C was 95.3% under setting [10]; 85.5% under setting [11]; 77.8% under setting [12]; 70.7% under setting [13]; 52.6% (second compound 0.316 µM, first compound 3.16 µM); 46.3% (second compound 0.316 µM, first compound 10 µM). Further, the viability, T/C was 87.9% under setting [14]; 88.9% under setting [15]; 84.3% under setting [16]; 77.4% under setting [17]; 53.7% (second compound 1 µM, first compound 3.16 µM); 45.5% (second compound 1 µM, first compound 10 µM). Moreover, the viability, T/C under setting [18] was 87.9%; the viability, T/C under setting [19] is 96%; the viability, T/C under setting [20] is 85.5%; the viability, T/C under setting [21] was 70.5%; the viability, T/C (second compound 3.16 µM, first compound 3.16 µM) was 54.2%; the viability, T/C (second compound 3.16 µM, first compound 10 µM) was 50.9%. The viability, T/C is, setting by setting: under setting [22], 88.4%; under setting [23], 84.8%; under setting [24], 78.3%; under setting [25], 69.7%; (second compound 10 µM, first compound 3.16 µM) 51.3%; (second compound 10 µM, first compound 10 µM) 54.7%.
`O=C(C=Cc1cccc(S(=O)(=O)Nc2ccccc2)c1)NO` + NC1CC1c1ccc(-c2cccc(O)c2)cc1: the IC50 is 0.0658 µM under setting [1]; 0.0707 µM under setting [2]; 0.0692 µM under setting [3]; 0.0665 µM under setting [4]; 0.0636 µM under setting [5]. For the same compound, the viability, T/C reads like this: (second compound 0.1 µM, first compound 0.00949 µM) 85.4%; (second compound 0.1 µM, first compound 0.03 µM) 75.1%; (second compound 0.1 µM, first compound 0.0949 µM) 36.9%; (second compound 0.1 µM, first compound 0.3 µM) 14.6%; (second compound 0.1 µM, first compound 0.949 µM) 1.81%; (second compound 0.1 µM, first compound 3 µM) 0.79%. Besides, the viability, T/C was 78.8% (second compound 0.316 µM, first compound 0.00949 µM); 69.1% (second compound 0.316 µM, first compound 0.03 µM); 43.9% (second compound 0.316 µM, first compound 0.0949 µM); 8.31% (second compound 0.316 µM, first compound 0.3 µM); 0.59% (second compound 0.316 µM, first compound 0.949 µM); 0.61% (second compound 0.316 µM, first compound 3 µM). Moreover, the viability, T/C (second compound 1 µM, first compound 0.00949 µM) was 79.5%; the viability, T/C (second compound 1 µM, first compound 0.03 µM) was 72.9%; the viability, T/C (second compound 1 µM, first compound 0.0949 µM) was 40.6%; the viability, T/C (second compound 1 µM, first compound 0.3 µM) was 13.6%; the viability, T/C (second compound 1 µM, first compound 0.949 µM) was 0.92%; the viability, T/C (second compound 1 µM, first compound 3 µM) is 0.19%. In addition, the viability, T/C is 82.8% (second compound 3.16 µM, first compound 0.00949 µM); 74.1% (second compound 3.16 µM, first compound 0.03 µM); 37.5% (second compound 3.16 µM, first compound 0.0949 µM); 16.5% (second compound 3.16 µM, first compound 0.3 µM); 0.75% (second compound 3.16 µM, first compound 0.949 µM); 1.27% (second compound 3.16 µM, first compound 3 µM). Also, the viability, T/C was 74% (second compound 10 µM, first compound 0.00949 µM); 65.2% (second compound 10 µM, first compound 0.03 µM); 41.4% (second compound 10 µM, first compound 0.0949 µM); 17.4% (second compound 10 µM, first compound 0.3 µM); 0.56% (second compound 10 µM, first compound 0.949 µM); 1.22% (second compound 10 µM, first compound 3 µM).
In the case of `CC1(C)CCC(CN2CCN(c3ccc(C(=O)NS(=O)(=O)c4ccc(NCC5CCOCC5)c([N+](=O)[O-])c4)c(Oc4cnc5[nH]ccc5c4)c3)CC2)=C(c2ccc(Cl)cc2)C1`, the viability, T/C runs as follows: (compound 0.0316 µM) 97.5% and 84.5%; (compound 0.1 µM) 95.1% and 89.4%; (compound 0.316 µM) 85.2% and 79.3%; (compound 1 µM) 81% and 90.1%; (compound 3.16 µM) 68.8% and 79.1%; (compound 10 µM) 13.5% and 7.08%. Where the note is “curve of compound”, the IC50 was 4.47 µM and 5.04 µM.
Turning to `CC[C@@]1(O)C(=O)OCc2c1cc1n(c2=O)Cc2cc3c(CN(C)C)c(O)ccc3nc2-1`, the viability, T/C runs as follows: (compound 0.000316 µM) 95.5% and 101%; (compound 0.001 µM) 96.8% and 101%; (compound 0.00316 µM) 78.7% and 73.8%; (compound 0.01 µM) 57.1% and 32.2%; (compound 0.0316 µM) 35.8% and 14%; (compound 0.1 µM) 10% and 7.12%. Moreover, the IC50 (curve of compound) was 0.0152 µM and 0.00617 µM.
Regarding `CC(C)c1c(-c2ccccc2)nc2c(C#N)c[nH]n2c1=O`, the viability, T/C reads like this: (compound 0.0316 µM) 93.8% and 102%; (compound 0.1 µM) 105% and 100%; (compound 0.316 µM) 107%; (compound 1 µM) 91.4% and 101%; (compound 3.16 µM) 75.4% and 90.9%; (compound 10 µM) 72.7% and 71.9%. Under “curve of compound”, the IC50 was more than 10 µM.

Usually IC50 stands for the concentration that gives 50% inhibition. One may read the viability, T/C as the result in the treated group divided by that in the control group, in per cent.
